The target in test [1] is T1, Human LPA1 (Homo sapiens, UniProt Q92633). Kind of test: LPA1 calcium flux assay. The class given is cell-based. Further details: the full-length cDNA for human LPA1 is obtained by PCR of the reverse transcription reaction; expressed in transfected cells; host or cells: CHO. As to conditions: human LPA1 expressing CHO cells; stimulated with 10 nM LPA; read-out: Ca Flux LPA1 IC50. As to the method:
Establishment of a CHO Cell Line Stably Expressing Human LPA1
A 1.1 kb cDNA encoding the human LPA1 receptor is cloned from human lung. Human lung RNA (Clontech Laboratories, Inc. USA) is reverse transcribed using the RETROscript kit (Ambion, Inc.) and the full-length cDNA for human LPA1 is obtained by PCR of the reverse transcription reaction. The nucleotide sequence of the cloned human LPA1 is determined by sequencing and is confirmed to be identical to the published human LPA1 sequence (An et al. Biochem. Biophys. Res. Commun. 231:619 (1997). The cDNA is cloned into the pcDNA5 pcDNA5/FRT expression plasmid and is transfected in CHO cells using lipofectamine 2000 (Invitrogen Corp., USA). Clones stably expressing human LPA1 are selected using hygromycin and identified as cells that show Ca-influx in response to LPA.
LPA1 and LPA3 Calcium Flux Assays
Human LPA1 or LPA3 expressing CHO cells were seeded at 20,000-45,000 cells per well in a 96-well poly-D-lysine coated plate one or two days before the assay. Prior to the assay, the cells were washed once with PBS and then cultured in serum-free media overnight. On the day of the assay, a calcium indicator dye (Calcium 4, Molecular Devices) in assay buffer (HBSS with Ca^2+ and Mg^2+ and containing 20 mM Hepes and 0.3% fatty-acid free human serum albumin) was added to each well and incubation continued for 1 hour at 37° C. 10 μl of test compounds in 2.5% DMSO were added to the cells and incubation continued at room temperature for 30 minutes. Cells were then stimulated by the addition of 10 nM LPA and intracellular Ca^2+ measured using the Flexstation 3 (Molecular Devices). IC50s were determined using Graphpad prism analysis of drug titration curves.
(Calcium flux is commonly read through the fluorescence of an indicator in the cells.)

The target in test [2] is T1, Human LPA1. The test is described as follows: Beta-Arrestin based assay for human LPA1R antagonists (PathHunter). The class given is cell-based. Further details: host or cells: CHO. As to conditions: CHO cells stably expressing ProLink tagged human LPA1R; agonist LPA 0.5 micromolar. The gist of the method:
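CHO cells stably expressing ProLink-tagged human LPA1R with β-arrestin–EA fusion, assayed by β-galactosidase complementation. Antagonists tested against 0.5 micromolar LPA ([…]), in quadruplicate. End-point luminescence fitted to a 4-parameter logistic to give IC50.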

The text below walks through data of patent US8975235B2, “Lysophosphatidic acid receptor antagonists” (InterMune, Inc., priority 2011, dated 2015).

T1 sequence (Q92633 whole entry): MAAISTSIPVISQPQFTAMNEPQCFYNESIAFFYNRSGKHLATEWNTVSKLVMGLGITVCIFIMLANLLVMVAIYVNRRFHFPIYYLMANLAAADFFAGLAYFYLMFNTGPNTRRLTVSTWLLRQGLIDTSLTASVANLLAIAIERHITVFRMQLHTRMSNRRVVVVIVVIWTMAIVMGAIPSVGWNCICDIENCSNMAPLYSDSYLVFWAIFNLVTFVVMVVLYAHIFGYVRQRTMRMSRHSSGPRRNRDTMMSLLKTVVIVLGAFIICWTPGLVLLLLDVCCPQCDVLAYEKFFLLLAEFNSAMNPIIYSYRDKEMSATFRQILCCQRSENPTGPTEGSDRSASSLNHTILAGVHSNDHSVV

For orientation: IC50 means the point on the concentration scale where inhibition reaches its midpoint. As usually defined, the EC50 is the concentration giving half of the maximal effect. For the molecule `Cc1nsc(-c2ccc(-c3ccc(C(C(=O)O)c4ccccc4)cc3)cc2)c1NC(=O)O[C@H](C)c1ccccc1Cl` (single isomer, unassigned) [Compound 70], the IC50 in test [1] was over 500 nM. For the same molecule, in test [2], the EC50 is under 50 nM.
For `Cc1nsc(-c2ccc(-c3ccc(C(C(=O)O)c4ccccc4)cc3)cc2)c1NC(=O)O[C@H](C)c1ccccc1Cl` (single isomer, unassigned) [Compound 71] the same measures were over 500 nM and 50 to 500 nM.
With `Cc1noc(-c2ccc(-c3ccc(CC(=O)O)cc3)cc2)c1NS(=O)(=O)c1ccccc1` [Compound 19], the IC50 in test [1] was over 500 nM. The molecule further showed an EC50 in test [2] of over 500 nM.
Regarding `Cc1onc(-c2ccc(-c3ccc(C4(C(=O)O)CC4)cc3)cc2)c1NC(=O)O[C@H](C)c1ccccc1Cl` [Compound 30], in test [1], the IC50 is under 50 nM. For the same molecule, the EC50 in test [2] is under 50 nM.
In the case of `Cc1nsc(-c2ccc(-c3ccc(C4(C(=O)O)CC4)cc3)cc2)c1NC(=O)O[C@H](C)c1ccccc1` [Compound 44], the half-inhibitory concentration (IC50) in test [1] was under 50 nM. Moreover, in test [2], the EC50 is under 50 nM.
`Cc1nsc(-c2ccc(-c3ccc(C4(C(=O)O)CC4)cc3)cc2)c1NC(=O)OCc1ccccc1` [Compound 45]: the IC50 in test [1] was under 50 nM. This molecule gave an EC50 in test [2] of under 50 nM.
Consider `Cc1nsc(-c2ccc(-c3ccc(C4(C(=O)O)CC4)cc3)cc2)c1NC(=O)OCc1ccccc1Cl` [Compound 46], for which, in test [1], the half-inhibitory concentration (IC50) fell in the range of 50 to 500 nM. This molecule also yielded an EC50 in test [2] of 50 to 500 nM.
Take `Cc1snc(-c2ccc(-c3ccc(C4(C(=O)O)CC4)cc3)cc2)c1NC(=O)O[C@H](C)c1ccccc1Cl` [Compound 56]: in test [1], the IC50 was in the range of 50 to 500 nM. In test [2], this molecule had an EC50 of under 50 nM.
Regarding `C[C@@H](OC(=O)Nc1c(-c2ccc(-c3ccc(C4(C(=O)O)CC4)cc3)cc2)oc2ccc(F)cc12)c1ccccc1Cl` [Compound 60], the IC50 in test [1] is over 500 nM. In test [2], this molecule registered an EC50 of 50 to 500 nM.
The corresponding values for `C[C@@H](OC(=O)Nc1c(-c2ccc(-c3ccc(C4(C(=O)O)CC4)cc3)cc2)oc2cc(F)ccc12)c1ccccc1Cl` [Compound 61] are over 500 nM and under 50 nM.
For `Cc1nnn(-c2ccc(-c3ccc(C4(C(=O)O)CC4)cc3)cc2)c1NC(=O)O[C@H](C)c1ccccc1Cl` [Compound 64] the same measures were 50 to 500 nM and under 50 nM.
The corresponding values for `C[C@@H](OC(=O)Nc1ccnn1-c1ccc(-c2ccc(C3(C(=O)O)CC3)cc2)cc1)c1ccccc1Cl` [Compound 67] are under 50 nM and under 50 nM.
As for `C[C@@H](OC(=O)Nc1ccn(-c2ccc(-c3ccc(C4(C(=O)O)CC4)cc3)cc2)n1)c1ccccc1Cl` [Compound 68], the IC50 in test [1] is over 500 nM. The EC50 in test [2] was over 500 nM.
With `Cc1noc(-c2ccc3c(c2)CCc2cc(CC(=O)O)ccc2-3)c1NC(=O)O[C@H](C)c1ccccc1Cl` [Compound 78], the IC50 in test [1] fell in the range of 50 to 500 nM. Also, the EC50 in test [2] is 50 to 500 nM.
`Cc1noc(-c2ccc(-c3ccc(C4CCOCC4C(=O)O)cc3)cc2)c1NC(=O)O[C@H](C)c1ccccc1Cl` (some centres unmarked) [Compound 79]: the IC50 in test [1] was 50 to 500 nM. The molecule further gave an EC50 in test [2] of under 50 nM.
For the molecule `Cc1noc(-c2ccc(-c3ccc(C4(C(=O)O)COC4)cc3)cc2)c1NC(=O)O[C@H](C)c1ccccc1` [Compound 80], in test [1], the IC50 lay within 50 to 500 nM. The molecule further registered an EC50 in test [2] of under 50 nM.
Turning to `Cc1nsc(C#Cc2ccc(C3(C(=O)O)CC3)cc2)c1NC(=O)O[C@H](C)c1ccccc1Cl` [Compound 81], in test [1], the IC50 is under 50 nM. Moreover, the EC50 in test [2] was under 50 nM.
Regarding `Cc1nsc(C#Cc2ccc(C3(C(=O)O)CC3)cc2)c1NC(=O)O[C@H](C)c1ccccc1` [Compound 82], in test [1], the IC50 was over 500 nM. Also, in test [2], the EC50 was 50 to 500 nM.
With `Cc1nsc(-c2ccc(-c3ccc(C4(C(=O)O)CC4)cc3)cc2)c1NC(=O)O[C@H](C)c1ccccc1F` [Compound 83], in test [1], the IC50 lay in the range of 50 to 500 nM. Moreover, in test [2], the 50% effective concentration (EC50) was under 50 nM.
The corresponding values for `Cc1ccccc1[C@@H](C)OC(=O)Nc1c(C)nsc1-c1ccc(-c2ccc(C3(C(=O)O)CC3)cc2)cc1` [Compound 86] are 50 to 500 nM and under 50 nM.
For `Cc1snc(-c2ccc(-c3ccc(C4(C(=O)O)CC4)cc3)cc2)c1NC(=O)O[C@H](C)c1ccccc1` [Compound 105] the same measures were under 50 nM and under 50 nM.
Turning to `C[C@@H](OC(=O)Nc1scnc1-c1ccc(-c2ccc(C3(C(=O)O)CC3)cc2)cc1)c1ccccc1Cl` [Compound 107], the IC50 in test [1] is under 50 nM. The half-maximal effective concentration (EC50) in test [2] is under 50 nM.
As to `Cc1noc(-c2ccc3cc(C#CC4(C(=O)O)CC4)ccc3c2)c1NC(=O)O[C@H](C)c1ccccc1` [Compound 140], the IC50 in test [1] was under 50 nM. For the same molecule, the EC50 in test [2] is under 50 nM.
With `C[C@@H](OC(=O)Nc1ocnc1-c1ccc(-c2ccc(C3(C(=O)O)CC3)cc2)cc1)c1ccccc1Cl` [Compound 147], the IC50 in test [1] lay within 50 to 500 nM. The molecule further yielded an EC50 in test [2] of under 50 nM.
For `Cc1nsc(-c2cc(Cl)c(-c3ccc(C4(C(=O)O)CC4)cc3)cc2F)c1NC(=O)O[C@H](C)c1ccccc1` [Compound 179] the same measures were 50 to 500 nM and under 50 nM.
For `Cc1nsc(-c2cc(F)c(-c3ccc(C4(C(=O)O)CC4)cc3)cc2F)c1NC(=O)O[C@H](C)c1ccccc1` [Compound 182] the same measures were under 50 nM and under 50 nM.
For `Cc1nsc(-c2ccc(-c3ccc(C4(C(=O)O)CC4)cc3)c(F)c2)c1NC(=O)O[C@H](C)c1ccccc1` [Compound 185] the same measures were under 50 nM and under 50 nM.
For the molecule `C[C@@H](OC(=O)Nc1c(-c2cc(F)c(-c3ccc(C4(C(=O)O)CC4)cc3)cc2F)cnn1C)c1ccccc1` [Compound 200], in test [1], the IC50 lay within 50 to 500 nM. The molecule further showed a concentration for a half-maximal effect (EC50) in test [2] of under 50 nM.
The corresponding values for `C[C@@H](OC(=O)Nc1c(-c2cc(Cl)c(-c3ccc(C4(C(=O)O)CC4)cc3)cc2F)cnn1C)c1ccccc1` [Compound 201] are under 50 nM and under 50 nM.
The corresponding values for `Cc1nsc(-c2ccc(-c3ccc(C4(C(=O)O)COC4)cc3)cc2)c1NC(=O)O[C@H](C)c1ccccc1` [Compound 241] are 50 to 500 nM and 50 to 500 nM.
For `Cc1noc(-c2ccc(-c3ccc(C4(C(=O)O)CCOCC4)cc3)cc2)c1NC(=O)O[C@H](C)c1ccccc1` [Compound 242] the same measures were 50 to 500 nM and under 50 nM.
For the molecule `C[C@@H](NC(=O)OCc1ccccc1)C(=O)N1CCN(c2ccc(CC(=O)O)cc2)CC1` [Compound 273], in test [2], the EC50 is over 500 nM.
Still for that read-out and setting: for `CCCC(=O)Nc1ccnc(-c2ccc(-c3ccc(CC(=O)O)cc3)cc2)c1` [reference compound] the value was over 500 nM; for `CCCCC(=O)NCC(=O)c1ccc(-c2ccc(CC(=O)O)cc2)cc1` [reference compound], over 500 nM.
Same read-out and setting: for `CC(=O)Nc1ccnc(-c2ccc(-c3ccc(CC(=O)O)cc3)cc2)c1` [reference compound] the value was over 500 nM; for `CCC(=O)Nc1ccnc(-c2ccc(-c3ccc(CC(=O)O)cc3)cc2)c1` [reference compound], over 500 nM.
`O=C(O)Cc1ccc(-c2ccc(-c3cc(NC(=O)C4CCCC4)ccn3)cc2)cc1` [reference compound] displayed an EC50 in test [2] of over 500 nM.
Still for that read-out and setting: as for `CC(C)NC(=O)Nc1ccnc(-c2ccc(-c3ccc(CC(=O)O)cc3)cc2)c1` [reference compound], the figure is over 500 nM; as for `CCCOC(=O)NCC(=O)c1ccc(-c2ccc(CC(=O)O)cc2)cc1` [reference compound], over 500 nM.
Same read-out and setting: as for `CC(C)NC(=O)Nc1ncncc1-c1ccc(-c2ccc(CC(=O)O)cc2)cc1` [reference compound], the figure is over 500 nM.
